Assay type in all cases: functional
What all share (details): read-out: ED50 (the source's name)

The subject of one test is P388. Briefly: Cytotoxicity against mouse P388 cells by MTT assay. For orientation: Tetrazolium assays rely on reduction of a dye to a coloured formazan, in cell work by metabolically active cells.
The next test has as its system KB. Briefly: Cytotoxicity against human KB cells by MTT assay.
The next test has as its system A549. Briefly: Cytotoxicity against human A549 cells by MTT assay.
Another test relates to HT-29. The test is described as follows: Cytotoxicity against human HT29 cells by MTT assay.

In ChEMBL document CHEMBL1151671, “Cytotoxic oxygenated desmosterols of the red alga Galaxaura marginata” (1996) one finds EC50 data, which are given here for six compounds.

Values after ≈ are worked out from the molar mass of the structure shown.

With `C=C(C)C(CC[C@@H](C)[C@H]1CC[C@H]2[C@@H]3CC=C4C[C@@H](O)CC[C@]4(C)[C@H]3CC[C@]12C)OO` (stereo partly specified), the EC50 with P388 came to 0.26 µg/mL (≈ 0.624 µM); in the test on KB, 0.33 µg/mL (≈ 0.792 µM); with A549, 0.64 µg/mL (≈ 1.54 µM); in the test on HT-29, 0.43 µg/mL (≈ 1.03 µM).
`C[C@H](C/C=C/C(C)(C)OO)[C@H]1CC[C@H]2[C@@H]3CC=C4C[C@@H](O)CC[C@]4(C)[C@H]3CC[C@]12C`: in the test with P388, the EC50 came to 0.22 µg/mL (≈ 0.528 µM).
`C[C@H](C/C=C/C(C)(C)O)[C@H]1CC[C@H]2[C@@H]3CC=C4C[C@@H](O)CC[C@]4(C)[C@H]3CC[C@]12C`: the EC50 in the test on P388 amounted to 0.15 µg/mL (≈ 0.374 µM); in the test on KB, 0.61 µg/mL (≈ 1.52 µM); in the test on A549, 1.08 µg/mL (≈ 2.7 µM); in the test on HT-29, 0.6 µg/mL (≈ 1.5 µM).
Take `C=C(C)C(O)CC[C@@H](C)[C@H]1CC[C@H]2[C@@H]3CC=C4C[C@@H](O)CC[C@]4(C)[C@H]3CC[C@]12C` (stereo partly specified): the EC50 in the test with P388 was 0.36 µg/mL (≈ 0.899 µM); with KB it was 0.67 µg/mL (≈ 1.67 µM); in the test with A549 it was 1.61 µg/mL (≈ 4.02 µM); in the test with HT-29, 0.37 µg/mL (≈ 0.924 µM).
As for `C[C@H](CCC1OC1(C)C)[C@H]1CC[C@H]2[C@@H]3C[C@@H](O)C4=CC(=O)CC[C@]4(C)[C@H]3CC[C@]12C` (mixture of isomers), the EC50 with P388 amounted to 0.75 µg/mL; in the test with KB it was 0.3 µg/mL; in the test on A549 it was 3.14 µg/mL; with HT-29, 0.87 µg/mL.
For the compound `CC(C)=CCC[C@@H](C)[C@H]1CC[C@H]2[C@@H]3CC=C4C[C@@H](O)CC[C@]4(C)[C@H]3CC[C@]12C` [DESMOSTEROL], the EC50 with P388 is 33.5 µg/mL (≈ 87.2 µM); in the test with KB, greater than 50 µg/mL; with A549, greater than 50 µg/mL; in the test with HT-29 it was greater than 50 µg/mL.
